From article PMC7006651, “Effect of 6-Benzoyl-benzothiazol-2-one scaffold on the pharmacological profile of α-alkoxyphenylpropionic acid derived PPAR agonists” (Journal of Enzyme Inhibition and Medicinal Chemistry, 2020)
Where two headings read alike, the source gives them in different places.

Tests used:
human PPARγ [1] = molecular target: T1, human PPARγ (Homo sapiens, UniProt P37231); experiment: Membrane-bound PPARγ binding assay ([3H]rosiglitazone competition, filtration); conditions: competition with [3H]rosiglitazone (4 nM), 180 min at 4 °C; read-out: Ki (nM), hPPARγ binding affinity
T1 sequence (P37231 235-505 limits assumed): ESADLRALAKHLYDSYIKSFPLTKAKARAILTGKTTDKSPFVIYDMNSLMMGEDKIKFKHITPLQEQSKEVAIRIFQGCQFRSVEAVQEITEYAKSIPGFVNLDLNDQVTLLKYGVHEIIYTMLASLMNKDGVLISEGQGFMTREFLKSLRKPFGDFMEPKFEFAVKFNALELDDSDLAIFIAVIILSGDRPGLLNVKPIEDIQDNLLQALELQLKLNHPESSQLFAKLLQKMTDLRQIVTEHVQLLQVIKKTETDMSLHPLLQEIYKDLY
Protocol: The membrane-associated PPARγ was used as the biological source as previously described. Binding buffer consisted of 10 mM Tris/HCl, pH 8.2, containing 50 mM KCl and 1 mM dithiothreitol. […] Radioactivity was measured in a TopCount apparatus (Packard).

human PPARγ [2] = molecular target: T2, human PPARγ (Homo sapiens, UniProt P37231); experiment: Gene reporter (transactivation) assay, Cos-7 cells transfected with pGal4-hPPARγ; assay type: cell-based; conditions: for Emax: COS-7, 24 h, read-out: hPPAR gene reporter γGal4 (%); for EC50: GAL4 chimeric hPPARγ, read-out: hPPAR gene reporter γEC50;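 on all read-outs here: luciferase reporter (pG5-TK) activity normalised to cotransfected β-galactosidase, cells exposed to increasing compound concentrations in DMEM with 0.2% FCS, DMSO vehicle as control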
T2 construct: expressed in transfected cells; host or cells: Cos-7
T2 sequence (P37231 238-503 limits assumed): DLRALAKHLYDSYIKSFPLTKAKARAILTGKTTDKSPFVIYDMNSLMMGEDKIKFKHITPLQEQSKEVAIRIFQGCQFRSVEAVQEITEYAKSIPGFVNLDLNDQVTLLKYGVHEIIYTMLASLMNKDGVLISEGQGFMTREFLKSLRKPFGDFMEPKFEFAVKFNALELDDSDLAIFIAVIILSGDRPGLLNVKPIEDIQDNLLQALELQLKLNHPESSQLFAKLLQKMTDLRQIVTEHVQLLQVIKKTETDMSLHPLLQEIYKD
Protocol: (§1) Cos-7 cells were transiently transfected with luciferase reporter plasmid (pG5-TK-pGL3) in the presence of pGal4-hPPARα or pGal4-hPPARγ (these vectors express chimeric proteins containing the Gal4 DNA-binding domain fused to the human PPARα or PPARγ ligand binding domain coding sequence) expression vector. […] Cells were transfected in OptiMEM without FCS for 3 h at 37°, using polyethylenimine (PEI), with reporter and expression plasmids, as stated in figure’s legend. The plasmid pBluescript (Stratagene, La Jolla, CA) was used as carrier DNA to set the final amount of DNA to 5.5 µg/dish. The pCMV- ß-galactosidase expression plasmid was cotransfected as a control for transfection efficiency. […] After 16 h, cells were trypsinised and seeded in 96-well plates at the density of 2 × 10^4 cells/well and incubated for 6 h in 10% FCS containing DMEM. Cells were then incubated for 24 h in DMEM containing 0.2% FCS and increasing concentrations of the compound tested or vehicle (DMSO). At the end of the experiment, cells were washed once with ice-cold PBS and the luciferase and the β–galactosidase assays were performed as described previously[20]. Cells were incubated 24 h in the presence of indicated concentrations of compound. Luciferase activity was measured and normalised to internal control β-galactosidase activity. […] EC50 were estimated using Prism software (GraphPad). All transfection experiments were performed at least three times.

human PPARα = molecular target: T3, human PPARα (Homo sapiens, UniProt Q07869); experiment: Gene reporter (transactivation) assay, Cos-7 cells transfected with pGal4-hPPARα; assay type: cell-based; conditions: for Emax: COS-7, 24 h, read-out: hPPAR gene reporter αGal4 (%); for Emax / hPPAR gene reporter αGal4 (%): Emax relative to maximum activation with WY14643 (10 µM) = 100%; for EC50: GAL4 chimeric hPPARα, read-out: hPPAR gene reporter αEC50; for EC50 / hPPAR gene reporter αGal4 (%): 24 h;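 on all read-outs here: luciferase signal from a Gal4-driven reporter normalised to cotransfected β-galactosidase activity, cells exposed to rising compound concentrations with DMSO vehicle as control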
T3 construct: expressed in transfected cells; host or cells: Cos-7
T3 sequence (Q07869 239-466 limits assumed): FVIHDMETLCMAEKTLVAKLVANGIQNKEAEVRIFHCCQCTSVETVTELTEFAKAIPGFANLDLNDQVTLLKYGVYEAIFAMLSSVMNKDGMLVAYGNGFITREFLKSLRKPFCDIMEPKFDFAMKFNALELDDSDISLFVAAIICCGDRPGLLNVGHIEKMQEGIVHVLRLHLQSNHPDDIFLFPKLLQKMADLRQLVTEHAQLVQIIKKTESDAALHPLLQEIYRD
Protocol: as §1

ob/ob mice = experiment: In vivo ob/ob mice: glycaemia, triglyceridemia, insulinemia, body weight; conditions: oral, 4 days, synthesised compounds 8.4 µMkg^−1, references 3 mgkg^−1; for ΔBW (body weight variation between day 0 and day 4): expressed in % of rosiglitazone in the same study (= 100%), ob/ob mice; for Change (%) Gly (glycemia) / Change (%) Ins (insulin) / Change (%) TG (triglycerides): percent change versus control, ob/ob mice at day 4;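 on all read-outs here: male ob/ob mice aged 10–12 weeks, given the compound once daily by oral gavage as a 1% hydroxyethylcellulose suspension, 8–12 animals per group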
Protocol: The glucose- and triglyceride-lowering activities of the compounds prepared were then tested using 10–12-week-old male ob/ob mice. […] Mice had access to filtered (0.22 mm) tap water ad libitum and irradiated pelleted laboratory chow (transbreed, Special Diet Services, England) throughout the study. Compounds were prepared as a suspension in 1% hydroxyethylcellulose (HEC) for oral administration (10 mLkg^−1). The mice (n = 8–12 per group) were dosed by gavage daily between 15:00 and 17:00 for 4 days. Randomisation was performed based on glycaemia values. The body weight gain (DBW in grams) of the animals was determined by measuring the difference between body weight at the beginning and end of the study for each mouse. At day 5 between 9:00 and 11:00 the mice were weighed, and blood samples were collected into heparin-containing tubes by retro-orbital puncture (500 mL per mouse). […] Plasma samples were prepared by centrifugation (2000 g for 10 min), and stored at −20 °C. For triglycerides and insulin determination, the percent change in plasma level in the treated group was calculated relative to the mean plasma level in the vehicle-treated group. ANOVA, followed by Dunnett’s comparison test (one-tailed) was used to estimate significant differences between the plasma glycaemia, triglycerides, insulin, and DBW values between the control group and the individual compound-treated groups.
As a side effect index, body weight was also measured daily, and body weight variation was calculated as a percentage of the difference in body weight between days 4 and 0.

[3] = Emax relative to maximum activation with rosiglitazone (1 μM) = 100%, Cos-7 cells, 24 h

Structure (SMILES)	Ki (human PPARγ [1]) [nM]	Emax (human PPARγ [2]; [3]) [%]	EC50 (human PPARγ [2]; Cos-7 cells, 24 h) [µM]	Emax (human PPARα) [%]	melting point [°C]	EC50 (human PPARα) [µM]	hPPAR gene reporter γGal4 (%) (human PPARγ [2]; [3])	hPPAR gene reporter αGal4 (%) (human PPARα)	ΔBW (body weight variation between day 0 and day 4) (ob/ob mice) [%]	Change (%) Gly (glycemia) (ob/ob mice) [%]	Change (%) Ins (insulin) (ob/ob mice) [%]	Change (%) TG (triglycerides) (ob/ob mice) [%]	Emax (human PPARγ [2]) [%]
CCOC(Cc1ccc(OCCN2C(=O)C(F)(F)c3cc(C(=O)c4ccccc4)ccc32)cc1)C(=O)O (stereo not drawn) [Compound 38, 3-{4-[2–(5-benzoyl-3,3-difluoro-2-oxo-2,3-dihydroindol-1-yl)ethoxy]phenyl}-2-ethoxy-propionic acid]	4	≤ 75	0.005	89									
CCOC(Cc1ccc(OCCN2C(=O)COc3cc(C(=O)c4ccccc4)ccc32)cc1)C(=O)O (stereo not drawn) [Compound 36, 3-{4-[2–(7-benzoyl-3-oxo-benzo[1, 4]oxazin-4-yl)-ethoxy]-phenyl}-2-ethoxypropionic acid]	1	> 100	0.08	80	36 to 38								
CCOC(Cc1ccc(OCCn2c(=O)sc3ccc(C(=O)c4ccccc4)cc32)cc1)C(=O)O (stereo not drawn) [Compound 31, 3-{4-[2–(5-benzoyl-2-oxo-benzothiazol-3-yl)-ethoxy]-phenyl}-2-ethoxypropionic acid]	8		0.061	≥ 80	49 to 51	0.256							
CON=C(c1ccccc1)c1ccc2c(c1)sc(=O)n2CCOc1ccc(C[C@H](OCC(F)(F)F)C(=O)O)cc1 [Compound 44b, (S)-3-{4-[2–(6-[(E)-methoxyimino-phenyl-methyl]-2-oxo-benzothiazol-3-yl)-ethoxy]-phenyl}-2–(2,2,2-trifluoro)ethoxypropionic acid]	3		0.0009			0.525	150	59	−17	−36	−89	−69	
CCOC(Cc1ccc(OCCN2C(=O)Cc3cc(C(=O)c4ccccc4)ccc32)cc1)C(=O)O (stereo not drawn) [Compound 37, 3-{4-[2–(5-benzoyl-2-oxo-2,3-dihydroindol-1-yl)ethoxy]phenyl}-2-ethoxypropionic acid]	6.5	≤ 75	0.04	100	68 to 70								
COc1ccc(OC(=O)N(CC(=O)O)Cc2ccc(OCCc3nc(-c4ccccc4)oc3C)cc2)cc1 [mura, Muraglitazar, reference compound]				84		0.595			206	−46	−46	−34	128
CN(CCOc1ccc(CC2SC(=O)NC2=O)cc1)c1ccccn1 (stereo not drawn) [rosi, Rosiglitazone, reference compound]									100	−57	−73	−46	

Now from value to compound, other results behind:

Ki (human PPARγ [1]) [nM]	Emax (human PPARγ [2]; [3]) [%]	EC50 (human PPARγ [2]; Cos-7 cells, 24 h) [µM]	Emax (human PPARα) [%]	melting point [°C]	EC50 (human PPARα) [µM]	hPPAR gene reporter γGal4 (%) (human PPARγ [2]; [3])	hPPAR gene reporter αGal4 (%) (human PPARα)	Structure (SMILES)	ΔBW (body weight variation between day 0 and day 4) (ob/ob mice) [%]	Change (%) Gly (glycemia) (ob/ob mice) [%]	Change (%) Ins (insulin) (ob/ob mice) [%]	Change (%) TG (triglycerides) (ob/ob mice) [%]	Emax (human PPARγ [2]) [%]
86	87	0.558	124	151 to 152	1.48			CCO[C@H](Cc1ccc(OCCn2c(=O)sc3cc(/C(=N/OC)c4ccccc4)ccc32)cc1)C(=O)O [Compound 46a, (R)-3-{4-[2–(6-[(E)-methoxyimino-phenyl-methyl]-2-oxo-benzothiazol-3-yl)-ethoxy]-phenyl}-2-ethoxypropionic acid]					
33		0.009			1.66	116	117	CON=C(c1ccccc1)c1ccc2c(c1)sc(=O)n2CCOc1ccc(C[C@@H](OCC(F)(F)F)C(=O)O)cc1 [Compound 46b, (R)-3-{4-[2–(6-[(E)-methoxyimino-phenyl-methyl]-2-oxo-benzothiazol-3-yl)-ethoxy]-phenyl}-2–(2,2,2-trifluoro)ethoxypropionic acid]					
							100	Cc1cccc(Nc2cc(Cl)nc(SCC(=O)O)n2)c1C [WY14643, reference compound]					
